Reference: patent US8951960B2, “Synergistic combination of DBNPA and polycyclic antibacterial peptide as biocide in bioethanol production” (Buckman Laboratories International, Inc., priority 2010, dated 2015)

Legend:
[1] = Persistence of intact biocide under fermentation tank conditions; format: physicochemical; conditions: conditions in the fermentation tank; based on laboratory work
Procedure: Under the conditions in the fermentation tank, DBNPA is expected to last intact only about 1-2 hours, based on laboratory work. The stillage, i.e., fermented unevaporated product (post “beer tank”) of distillation, is centrifuged, and dried (e.g., about 1 hour at about 250-300° F.), then the mixture is pumped over to a final tank where it is called the DDGS. DDGS is about ⅓ mass of the starting raw material for corn. The chemistry of DBNPA is not expected to endure and survive the centrifugation and heat of drying prior to entering distillers dried grains with solubles (DDGS) stage. In the corn-to-ethanol process, for example, DBNPA is expected to degrade to carbon dioxide and water vapor, and, as such, would have low environmental impact. […] The application of DBNPA avoids the use of antibiotics, which can remain stable throughout the process. The use of DBNPA makes the use of antibiotics unnecessary. The use of DBNPA is more economical since the cost of antibiotics (as the only treatment widely employed) can be relatively high and costly to the fermentation. […]

[2] = system: yeast (Saccharomyces cerevisiae); assay: Effect of biocide on fermentation yeast in corn fermentation; format: cell-based
Procedure: (§1) Experiments were conducted to evaluate the effectiveness of a nonoxidizing biocide as an antimicrobial agent for control of Lactobacillus infections in ethanol fermentation. The nonoxidizing biocide was BRONAM® 20 (20% 2,2-dibromo-3-nitrilopropionamide). The lactobacilli was L. plantarum. The yeast was Saccharomyces cereviseae. Corn mashes containing approximately 30% (w/w) dry solids were used.
A 0.2-g/ml suspension of yeast (Saccharomyces cerevisiae; Ethanol Red; Fermentis, Marcq-en-Baroeul, France) was prepared in a sterile 250-ml flask. This suspension was incubated and mixed for 20 minutes at 40° C. before inoculation into the fermentation flasks. […]
Each flask was mixed with an overhead agitator and samples were collected for the following measurements: yeast cell counts, final concentrations of substrates (glucose, DP2, DP3, and DP4+, where “DPx” represent glucose oligomers with “x” subunits), fermentation products (ethanol, glycerol, lactic acid, and acetic acid), total dry solids, and dissolved dry solids, and the density of the beer liquid phase. […] Samples were prepared for yeast cell counts by diluting at a factor of 100 in deionized water and staining with methylene blue to estimate viability then counted microscopically using a hemacytometer. The final concentrations of substrates and fermentation products were determined by HPLC. […]

[3] = system: Lactobacillus plantarum; assay: Corn mash ethanol fermentation infected with L. plantarum, treated with nonoxidizing biocide; format: cell-based; conditions: fermentation conditions typical of fuel-ethanol industry
Procedure: as §1
For slurry preparation, the moisture of ground corn was determined gravimetrically using a moisture balance by measuring the mass loss that occurred upon drying. The amount of corn, deionized (DI) water, and enzyme needed to prepare 160 g of corn slurry at a total dry solids concentration of 30% (w/w) for each replicate was determined. […]
For fermentation, once the mash was cooled, the entire contents (approximately 160 g) of each Labomat beaker were transferred to a sterile 250-ml Erlenmeyer flask. The masses of the mash and flasks were recorded, and the mass of mash transferred to the fermentation flasks was calculated. […]
The L. plantarum culture was prepared for inoculation by growing throughout the day in 100-ml of MRS broth. […] The initial concentration of the bacteria was determined by plating serial dilutions of the culture on MRS agar containing cycloheximide and incubating at 32° C. for 2 days before counting colonies. […]

[4] = system: Lactobacillus fermentans; assay: Kull synergism test in 25% strength MRS broth, quantities producing endpoints; format: cell-based; conditions: Nisin alone, 37° C., 24 hours
Procedure: Lactobacilli MRS broth (25% strength) was prepared and dispensed in 10 ml amounts into test tubes and autoclaved for 20 minutes at 121° C. The biocides were added to the test tubes in the desired concentrations, and then 100 microliters of an overnight broth of Lactobacillus fermentans were added to the respective test tubes and incubated at 37° C. for 24 hours.
When the sum of QA/Qa and QB/Qb is greater than one, antagonism is indicated and when the sum is equal to one, additivity is indicated. When the sum of this value is less than one, synergism exists.

Molecule | time the biocide lasts intact [1] | effect on yeast [2] | effect on lactobacilli [3] | Qa, concentration of Compound A acting alone which produced an endpoint ([4]; Example 2) | Qa, concentration of Compound A acting alone which produced an endpoint ([4]; Example 3)
N#CC(Br)(Br)C(N)=O [2,2-dibromo-3-nitrilopropionamide] | 1 to 2 h | does not kill the yeast | kills the bacteria (lactobacilli) |  | 
Nisin |  |  |  | 1.0 ppm | 1.0 ppm
